Experimental data published in ChEMBL document CHEMBL4002568, “Synthesis, alkaline phosphatase inhibition studies and molecular docking of novel derivatives of 4-quinolones” (Eur J Med Chem, 2017).

Experiments:
[1] = target: Intestinal-type alkaline phosphatase (Bos taurus) (UniProt P19111); experiment: Inhibition of calf intestinal alkaline phosphatase at 0.2 mM using CDP-star as substrate preincubated for 5 to 7 mins followed by substrate addition measured after 15 mins by spectrophotometric method
Sequence of Intestinal-type alkaline phosphatase (Bos taurus) (P19111 20-506 limits assumed): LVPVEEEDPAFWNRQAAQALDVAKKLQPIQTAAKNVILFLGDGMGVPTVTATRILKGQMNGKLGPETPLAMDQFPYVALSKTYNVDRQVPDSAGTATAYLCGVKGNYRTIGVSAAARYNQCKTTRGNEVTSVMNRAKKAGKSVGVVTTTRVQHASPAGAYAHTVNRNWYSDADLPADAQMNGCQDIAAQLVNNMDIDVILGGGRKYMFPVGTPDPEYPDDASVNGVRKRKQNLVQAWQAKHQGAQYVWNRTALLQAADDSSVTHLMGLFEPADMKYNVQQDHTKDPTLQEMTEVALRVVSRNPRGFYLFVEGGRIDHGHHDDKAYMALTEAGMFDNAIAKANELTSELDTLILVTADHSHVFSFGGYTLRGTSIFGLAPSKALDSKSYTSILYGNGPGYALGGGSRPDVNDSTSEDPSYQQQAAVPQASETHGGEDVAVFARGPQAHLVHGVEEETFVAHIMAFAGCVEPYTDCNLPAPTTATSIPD

[2] = target: T1, Alkaline phosphatase, tissue-nonspecific isozyme (Bos taurus, UniProt P09487); experiment: Inhibition of bovine TNAP using CDP-star as substrate preincubated for 5 to 7 mins followed by substrate addition measured after 15 mins by spectrophotometric method
T1 sequence (P09487 whole entry): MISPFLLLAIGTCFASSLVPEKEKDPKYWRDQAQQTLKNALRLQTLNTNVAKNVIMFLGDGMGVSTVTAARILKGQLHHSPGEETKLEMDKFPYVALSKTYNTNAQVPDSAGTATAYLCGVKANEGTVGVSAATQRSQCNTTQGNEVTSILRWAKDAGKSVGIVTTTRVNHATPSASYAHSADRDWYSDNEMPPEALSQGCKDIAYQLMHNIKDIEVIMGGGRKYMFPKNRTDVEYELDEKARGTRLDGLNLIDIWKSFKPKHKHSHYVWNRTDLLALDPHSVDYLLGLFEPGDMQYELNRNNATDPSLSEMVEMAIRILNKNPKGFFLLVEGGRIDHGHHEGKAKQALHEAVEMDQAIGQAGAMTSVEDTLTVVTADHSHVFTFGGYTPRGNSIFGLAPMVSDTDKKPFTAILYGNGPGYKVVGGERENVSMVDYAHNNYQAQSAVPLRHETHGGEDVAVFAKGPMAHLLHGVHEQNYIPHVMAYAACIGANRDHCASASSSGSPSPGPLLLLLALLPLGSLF

[3] = target: Intestinal-type alkaline phosphatase (Bos taurus, UniProt P19111); experiment: Inhibition of calf intestinal alkaline phosphatase using CDP-star as substrate preincubated for 5 to 7 mins followed by substrate addition measured after 15 mins by spectrophotometric method
Sequence of Intestinal-type alkaline phosphatase (P19111 whole entry): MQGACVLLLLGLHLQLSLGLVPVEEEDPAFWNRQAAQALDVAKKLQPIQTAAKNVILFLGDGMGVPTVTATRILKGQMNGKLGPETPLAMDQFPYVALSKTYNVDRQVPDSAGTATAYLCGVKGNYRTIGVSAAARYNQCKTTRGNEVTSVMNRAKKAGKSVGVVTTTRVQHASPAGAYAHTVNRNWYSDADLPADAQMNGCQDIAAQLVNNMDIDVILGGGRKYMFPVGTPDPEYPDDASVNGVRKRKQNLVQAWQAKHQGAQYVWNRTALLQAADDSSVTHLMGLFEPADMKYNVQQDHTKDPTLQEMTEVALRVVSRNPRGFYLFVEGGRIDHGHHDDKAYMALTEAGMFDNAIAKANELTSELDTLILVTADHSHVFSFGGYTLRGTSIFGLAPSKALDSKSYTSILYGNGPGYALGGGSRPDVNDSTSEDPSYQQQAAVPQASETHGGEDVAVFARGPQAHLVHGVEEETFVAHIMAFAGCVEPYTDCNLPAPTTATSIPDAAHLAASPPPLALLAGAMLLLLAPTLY

[4] = target: Intestinal-type alkaline phosphatase (Bos taurus) (UniProt P19111); experiment: Potency index, ratio of L-phenylalanine IC50 to test compound IC50 for calf intestinal alkaline phosphatase
[5] = target: T2, Alkaline phosphatase, tissue-nonspecific isozyme (Bos taurus) (UniProt P09487); experiment: Inhibition of bovine TNAP at 0.2 mM using CDP-star as substrate preincubated for 5 to 7 mins followed by substrate addition measured after 15 mins by spectrophotometric method
T2 sequence (whole entry): T1 sequence (P09487 whole entry)

Structure (SMILES)	inhibition [1] [%]	IC50 [2] [µM]	IC50 [3] [µM]	Ratio IC50 [4]	inhibition [5] [%]
Cc1ccc(-c2cc(=O)c3cc([N+](=O)[O-])ccc3[nH]2)cc1	–	2.56	6.25	–	–
CCCCCc1[nH]c2ccc([N+](=O)[O-])cc2c(=O)c1Br	–	17.2	3.06	–	–
CCCCCc1c(Br)c(=O)c2cc([N+](=O)[O-])ccc2n1Cc1ccc(OC)cc1	–	9.51	122	–	–
COc1ccc(-c2c(-c3ccc(C)cc3)[nH]c3ccc(N)cc3c2=O)cc1	–	14.8	1.06	–	–
Cc1ccc(-c2cc(=O)c3cc(N)ccc3[nH]2)cc1	–	19.4	16.2	–	–
CCCCCc1cc(=O)c2cc([N+](=O)[O-])ccc2n1Cc1ccc(OC)cc1	–	1.51	1.38	–	–
Cc1ccc(-c2[nH]c3ccc([N+](=O)[O-])cc3c(=O)c2Br)cc1	–	6.47	12.1	–	–
Cc1ccc(-c2[nH]c3ccc([N+](=O)[O-])cc3c(=O)c2-c2ccc(C(F)(F)F)cc2)cc1	–	2.69	4.38	–	–
CCCCCc1cc(=O)c2cc([N+](=O)[O-])ccc2[nH]1	–	44.8	16.7	–	–
Cc1ccc(-c2[nH]c3ccc(NC(=O)C(F)(F)F)cc3c(=O)c2-c2ccc(C)cc2)cc1	–	6.02	1.67	–	–
Cc1ccc(-c2c(Br)c(=O)c3cc([N+](=O)[O-])ccc3n2C(C)c2ccccc2)cc1 (stereo not drawn)	–	1.34	2.47	–	–

Continued, values first:

inhibition [1] [%]	IC50 [2] [µM]	IC50 [3] [µM]	Ratio IC50 [4]	inhibition [5] [%]	Structure (SMILES)
38.7	15.1	–	–	–	COc1ccc(Cn2c(-c3ccc(C)cc3)c(-c3ccc(C)cc3)c(=O)c3cc(N)ccc32)cc1
–	1.66	5.75	–	–	CCc1ccc(-c2c(-c3ccc(C)cc3)n(Cc3ccc(OC)cc3)c3ccc([N+](=O)[O-])cc3c2=O)cc1
48.6	38.5	–	–	–	CCCCCc1c(-c2ccc(C(F)(F)F)cc2)c(=O)c2cc([N+](=O)[O-])ccc2n1Cc1ccc(OC)cc1
–	4.74	28.7	–	–	COc1ccc(Cn2c(-c3ccc(C)cc3)c(-c3cc(C)cc(C)c3)c(=O)c3cc([N+](=O)[O-])ccc32)cc1
–	–	2.92	40	46.1	COc1ccc(Cn2c(-c3ccc(C)cc3)c(-c3ccc(C)cc3)c(=O)c3cc([N+](=O)[O-])ccc32)cc1
–	4.22	2.43	–	–	COc1ccc(Cn2c(-c3ccc(C)cc3)c(Br)c(=O)c3cc([N+](=O)[O-])ccc32)cc1
–	6.19	8.34	–	–	COc1ccc(Cn2c(-c3ccc(C)cc3)c(-c3ccc(C(F)(F)F)cc3)c(=O)c3cc([N+](=O)[O-])ccc32)cc1
–	–	2.04	40	46.8	COc1ccc(Cn2c(-c3ccc(C)cc3)c(-c3ccc(OC)cc3)c(=O)c3cc([N+](=O)[O-])ccc32)cc1
–	17.9	4.75	–	–	COc1ccc(C(C)n2c(-c3ccc(C)cc3)cc(=O)c3cc([N+](=O)[O-])ccc32)cc1 (stereo not drawn)
48.6	133	–	–	–	COc1ccc(Cn2c(-c3ccc(C)cc3)cc(=O)c3cc([N+](=O)[O-])ccc32)cc1
–	2.35	192	–	–	COc1ccc(Cn2c(-c3ccc(C)cc3)c(-c3ccccc3C=O)c(=O)c3cc([N+](=O)[O-])ccc32)cc1
–	4.53	4.58	–	–	COc1ccc(Cn2c(-c3ccc(C)cc3)c(C(F)(F)F)c(=O)c3cc([N+](=O)[O-])ccc32)cc1
